Series [1] can be described thus: absorption spectrum of the photosensitiser (FIG. 1). The note with it: absorption spectrum A of the photosensitiser in rinsing solution. It counts as physicochemical. From the text: The absorption spectrum A of the photosensitiser used here (dotted line in FIG. 1) has a maximum at a wavelength A of around 445 nm. To activate the photosensitiser, irradiation in the range of this wavelength—or optionally, as in the present example, with a broadband radiation source that also encompasses this range—is therefore effective. […] If more than one photosensitiser is used, this generally results in several absorption maxima to which the radiation source or its radiation spectrum must be adapted.

In series [2] the test system is Streptococcus mutans. Briefly: photodynamic effect of rinsing solution against S. mutans bacterial suspension, photosensitiser concentration series (FIG. 2). It counts as cell-based. The note with it: irradiation 300 s; for microorganism content after irradiation: 17-21 J/cm^2. From the text:
The corresponding comparative value was approx. 3.2·10^7 CFU/ml. The other bars of the graph each show the reduction in the microorganism content when using the (here: single) photosensitiser at different concentrations, including such concentrations that differ from the disclosed subject matter, in the rinsing solution after effective irradiation for 300 s with between 10 and 45 J/cm^2, in the present case between 17 and 21 J/cm^2.
As the other bars R50, R125 and R250 show, the microorganism content increases again with increasing photosensitiser concentration of 0.5 wt. % (R50), 1.25 wt. % (R125) and 2.5 wt. % (R250), i.e. to approx. 1.6·10^5 CFU/ml, approx. 1.1·10^6 CFU/ml and approx. 2.9·10^6 CFU/ml, respectively. This means that despite the higher concentration of the photosensitiser and the higher number of free radicals to be expected as a result, the efficacy of the disinfection is reduced.

Regarding `Cc1cc2nc3c(=O)[nH]c(=O)nc-3n(C[C@H](O)[C@H](O)[C@H](O)COP(=O)([O-])O)c2cc1C.[Na+]` [riboflavin 5′-phosphate sodium, Riboflavin 5′-phosphate sodium], the absorption maximum wavelength result in series [1] is reported as “around 445 nm”. Besides, the “microorganism content after irradiation” value is reported as “approx. 2.1·10^6 CFU/ml” in series [2] (0.01 wt. % photosensitiser in rinsing solution (bar R01), growth control approx. 3.2·10^7 CFU/ml); “approx. 2.0·10^4 CFU/ml” in series [2] (0.25 wt. % photosensitiser in rinsing solution (bar R25)); “approx. 1.6·10^5 CFU/ml” in series [2] (0.5 wt. % photosensitiser (bar R50)); “approx. 1.1·10^6 CFU/ml” in series [2] (1.25 wt. % photosensitiser (bar R125)); “approx. 2.9·10^6 CFU/ml” in series [2] (2.5 wt. % photosensitiser (bar R250)). The “reduction of microorganism content versus growth control” value in series [2] (0.01 wt. % photosensitiser) is on record as “more than an order of magnitude”; in series [2] (0.25 wt. % photosensitiser), “more than 3 orders of magnitude”. For the same compound, the “microorganism content as fraction of the comparative value” in series [2] (0.25 wt. % photosensitiser) is recorded as “less than 1/1000”.

For the origin of these results see patent US20260061056A1, “RINSE SOLUTION FOR A PHOTODYNAMIC DISINFECTION” (MANA HEALTH TECHNOLOGIES GMBH, priority 2022, published 2026).
